The kinase profiling compilation of Christmann-Franck et al. (2016)

What follows are compounds tested against EPHA3 (human) (UniProt P29320) (assay: radiometric filter-binding kinase assay, Kinase HotSpot). Settings: compound 0.5 µM; ATP 10 µM.

Row | Structure (SMILES) | residual activity
1 | Nc1ncnc2c1cnn2-c1ccccc1 | 95%
2 | O=C(c1ccccc1)c1ccc(N2CCOCC2)cc1O | 105%

The compounds below were run against ERBB2 (human) (UniProt P04626) in the same assay as above. Settings: compound 0.5 µM; ATP 10 µM.

Row | Structure (SMILES) | residual activity
3 | N#CCCc1ccc2c(c1)-c1[nH]c3ccc([N+](=O)[O-])cc3c1CC(=O)N2 | 98.6%
4 | O=c1c2ccccc2[nH]c(=S)n1CCN1CCC(=C(c2ccc(F)cc2)c2ccc(F)cc2)CC1 | 98.8%
5 | Nc1ncnc2c1cnn2-c1ccccc1 | 107%
6 | O=C(c1ccccc1)c1ccc(N2CCOCC2)cc1O | 94.8%

Each compound was assayed against GSK3B (human) (UniProt P49841) in the same assay as above. Settings: compound 0.5 µM; ATP 10 µM.
Chain of GSK3B (human) (P49841 whole entry, looked up): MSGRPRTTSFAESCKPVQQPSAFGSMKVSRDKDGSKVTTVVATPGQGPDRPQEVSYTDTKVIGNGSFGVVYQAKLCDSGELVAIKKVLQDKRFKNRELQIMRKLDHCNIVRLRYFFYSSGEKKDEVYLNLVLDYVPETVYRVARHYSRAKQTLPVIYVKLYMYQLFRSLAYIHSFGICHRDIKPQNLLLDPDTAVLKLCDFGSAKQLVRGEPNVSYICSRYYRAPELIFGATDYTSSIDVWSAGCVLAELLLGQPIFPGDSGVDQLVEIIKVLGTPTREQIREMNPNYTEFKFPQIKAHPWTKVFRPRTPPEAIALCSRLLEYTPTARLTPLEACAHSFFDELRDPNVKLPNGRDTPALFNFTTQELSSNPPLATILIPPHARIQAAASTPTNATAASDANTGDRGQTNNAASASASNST

Row | Structure (SMILES) | residual activity
7 | N#CCCc1ccc2c(c1)-c1[nH]c3ccc([N+](=O)[O-])cc3c1CC(=O)N2 | 2.71%
8 | O=c1c2ccccc2[nH]c(=S)n1CCN1CCC(=C(c2ccc(F)cc2)c2ccc(F)cc2)CC1 | 112%
9 | Nc1ncnc2c1cnn2-c1ccccc1 | 91.6%
10 | O=C(c1ccccc1)c1ccc(N2CCOCC2)cc1O | 118%

What follows are compounds tested against HIPK2 (human) (UniProt Q9H2X6) in the same assay as above. Settings: compound 0.5 µM; ATP 10 µM.

Row | Structure (SMILES) | residual activity
11 | N#CCCc1ccc2c(c1)-c1[nH]c3ccc([N+](=O)[O-])cc3c1CC(=O)N2 | 106%
12 | O=c1c2ccccc2[nH]c(=S)n1CCN1CCC(=C(c2ccc(F)cc2)c2ccc(F)cc2)CC1 | 105%
13 | Nc1ncnc2c1cnn2-c1ccccc1 | 103%
14 | O=C(c1ccccc1)c1ccc(N2CCOCC2)cc1O | 105%

These compounds were tested against IGF1R (human) (UniProt P08069) in the same assay as above. Settings: compound 0.5 µM; ATP 10 µM.

Row | Structure (SMILES) | residual activity
15 | N#CCCc1ccc2c(c1)-c1[nH]c3ccc([N+](=O)[O-])cc3c1CC(=O)N2 | 92.2%
16 | O=c1c2ccccc2[nH]c(=S)n1CCN1CCC(=C(c2ccc(F)cc2)c2ccc(F)cc2)CC1 | 105%
17 | Nc1ncnc2c1cnn2-c1ccccc1 | 96.4%
18 | O=C(c1ccccc1)c1ccc(N2CCOCC2)cc1O | 106%

Each compound was assayed against INSRR (human) (UniProt P14616) in the same assay as above. Settings: compound 0.5 µM; ATP 10 µM.
Chain of INSRR (human) (P14616 whole entry, looked up): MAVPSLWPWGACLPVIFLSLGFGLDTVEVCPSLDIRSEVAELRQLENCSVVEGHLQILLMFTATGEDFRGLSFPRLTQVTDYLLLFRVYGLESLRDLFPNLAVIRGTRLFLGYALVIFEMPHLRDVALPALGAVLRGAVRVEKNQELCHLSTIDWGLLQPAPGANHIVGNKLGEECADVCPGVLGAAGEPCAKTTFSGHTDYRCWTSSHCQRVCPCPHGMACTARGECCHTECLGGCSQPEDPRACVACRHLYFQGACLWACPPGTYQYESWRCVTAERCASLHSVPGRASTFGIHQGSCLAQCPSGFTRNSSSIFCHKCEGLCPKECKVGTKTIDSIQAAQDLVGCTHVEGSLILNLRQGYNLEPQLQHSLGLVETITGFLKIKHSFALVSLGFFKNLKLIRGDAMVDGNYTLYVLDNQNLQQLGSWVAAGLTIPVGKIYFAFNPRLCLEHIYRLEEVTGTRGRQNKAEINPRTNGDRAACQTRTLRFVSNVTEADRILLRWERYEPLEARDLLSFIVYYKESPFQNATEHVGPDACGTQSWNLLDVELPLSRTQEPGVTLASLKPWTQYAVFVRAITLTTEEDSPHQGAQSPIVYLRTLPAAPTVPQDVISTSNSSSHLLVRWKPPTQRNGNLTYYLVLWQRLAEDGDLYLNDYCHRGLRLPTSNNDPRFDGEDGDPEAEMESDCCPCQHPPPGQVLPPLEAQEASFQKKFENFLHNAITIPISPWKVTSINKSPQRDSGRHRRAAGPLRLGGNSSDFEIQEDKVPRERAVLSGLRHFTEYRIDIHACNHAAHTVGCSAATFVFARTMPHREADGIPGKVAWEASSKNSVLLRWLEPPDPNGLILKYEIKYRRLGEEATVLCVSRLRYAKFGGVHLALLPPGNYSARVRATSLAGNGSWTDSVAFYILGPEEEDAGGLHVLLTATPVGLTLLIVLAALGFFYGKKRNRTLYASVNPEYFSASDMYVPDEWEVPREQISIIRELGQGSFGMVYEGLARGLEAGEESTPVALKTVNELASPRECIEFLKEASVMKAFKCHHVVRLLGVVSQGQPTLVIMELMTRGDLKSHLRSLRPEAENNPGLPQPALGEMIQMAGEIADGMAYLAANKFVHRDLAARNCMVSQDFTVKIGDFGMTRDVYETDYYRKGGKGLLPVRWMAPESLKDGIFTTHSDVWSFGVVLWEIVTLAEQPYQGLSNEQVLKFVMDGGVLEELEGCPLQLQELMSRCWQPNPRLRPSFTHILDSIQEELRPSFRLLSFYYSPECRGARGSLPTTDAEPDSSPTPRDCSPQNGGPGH

Row | Structure (SMILES) | residual activity
19 | N#CCCc1ccc2c(c1)-c1[nH]c3ccc([N+](=O)[O-])cc3c1CC(=O)N2 | 99.2%
20 | O=c1c2ccccc2[nH]c(=S)n1CCN1CCC(=C(c2ccc(F)cc2)c2ccc(F)cc2)CC1 | 98.3%
21 | Nc1ncnc2c1cnn2-c1ccccc1 | 106%
22 | O=C(c1ccccc1)c1ccc(N2CCOCC2)cc1O | 97.6%

Each compound was assayed against IRAK1 (human) (UniProt P51617) in the same assay as above. Settings: compound 0.5 µM; ATP 10 µM.

Row | Structure (SMILES) | residual activity
23 | N#CCCc1ccc2c(c1)-c1[nH]c3ccc([N+](=O)[O-])cc3c1CC(=O)N2 | 74.9%
24 | O=c1c2ccccc2[nH]c(=S)n1CCN1CCC(=C(c2ccc(F)cc2)c2ccc(F)cc2)CC1 | 106%
25 | Nc1ncnc2c1cnn2-c1ccccc1 | 85.8%
26 | O=C(c1ccccc1)c1ccc(N2CCOCC2)cc1O | 103%

The compounds below were run against LRRK2 (human) (UniProt Q5S007) in the same assay as above. Settings: compound 0.5 µM; ATP 10 µM.
Chain of LRRK2 (human) (Q5S007 whole entry, looked up): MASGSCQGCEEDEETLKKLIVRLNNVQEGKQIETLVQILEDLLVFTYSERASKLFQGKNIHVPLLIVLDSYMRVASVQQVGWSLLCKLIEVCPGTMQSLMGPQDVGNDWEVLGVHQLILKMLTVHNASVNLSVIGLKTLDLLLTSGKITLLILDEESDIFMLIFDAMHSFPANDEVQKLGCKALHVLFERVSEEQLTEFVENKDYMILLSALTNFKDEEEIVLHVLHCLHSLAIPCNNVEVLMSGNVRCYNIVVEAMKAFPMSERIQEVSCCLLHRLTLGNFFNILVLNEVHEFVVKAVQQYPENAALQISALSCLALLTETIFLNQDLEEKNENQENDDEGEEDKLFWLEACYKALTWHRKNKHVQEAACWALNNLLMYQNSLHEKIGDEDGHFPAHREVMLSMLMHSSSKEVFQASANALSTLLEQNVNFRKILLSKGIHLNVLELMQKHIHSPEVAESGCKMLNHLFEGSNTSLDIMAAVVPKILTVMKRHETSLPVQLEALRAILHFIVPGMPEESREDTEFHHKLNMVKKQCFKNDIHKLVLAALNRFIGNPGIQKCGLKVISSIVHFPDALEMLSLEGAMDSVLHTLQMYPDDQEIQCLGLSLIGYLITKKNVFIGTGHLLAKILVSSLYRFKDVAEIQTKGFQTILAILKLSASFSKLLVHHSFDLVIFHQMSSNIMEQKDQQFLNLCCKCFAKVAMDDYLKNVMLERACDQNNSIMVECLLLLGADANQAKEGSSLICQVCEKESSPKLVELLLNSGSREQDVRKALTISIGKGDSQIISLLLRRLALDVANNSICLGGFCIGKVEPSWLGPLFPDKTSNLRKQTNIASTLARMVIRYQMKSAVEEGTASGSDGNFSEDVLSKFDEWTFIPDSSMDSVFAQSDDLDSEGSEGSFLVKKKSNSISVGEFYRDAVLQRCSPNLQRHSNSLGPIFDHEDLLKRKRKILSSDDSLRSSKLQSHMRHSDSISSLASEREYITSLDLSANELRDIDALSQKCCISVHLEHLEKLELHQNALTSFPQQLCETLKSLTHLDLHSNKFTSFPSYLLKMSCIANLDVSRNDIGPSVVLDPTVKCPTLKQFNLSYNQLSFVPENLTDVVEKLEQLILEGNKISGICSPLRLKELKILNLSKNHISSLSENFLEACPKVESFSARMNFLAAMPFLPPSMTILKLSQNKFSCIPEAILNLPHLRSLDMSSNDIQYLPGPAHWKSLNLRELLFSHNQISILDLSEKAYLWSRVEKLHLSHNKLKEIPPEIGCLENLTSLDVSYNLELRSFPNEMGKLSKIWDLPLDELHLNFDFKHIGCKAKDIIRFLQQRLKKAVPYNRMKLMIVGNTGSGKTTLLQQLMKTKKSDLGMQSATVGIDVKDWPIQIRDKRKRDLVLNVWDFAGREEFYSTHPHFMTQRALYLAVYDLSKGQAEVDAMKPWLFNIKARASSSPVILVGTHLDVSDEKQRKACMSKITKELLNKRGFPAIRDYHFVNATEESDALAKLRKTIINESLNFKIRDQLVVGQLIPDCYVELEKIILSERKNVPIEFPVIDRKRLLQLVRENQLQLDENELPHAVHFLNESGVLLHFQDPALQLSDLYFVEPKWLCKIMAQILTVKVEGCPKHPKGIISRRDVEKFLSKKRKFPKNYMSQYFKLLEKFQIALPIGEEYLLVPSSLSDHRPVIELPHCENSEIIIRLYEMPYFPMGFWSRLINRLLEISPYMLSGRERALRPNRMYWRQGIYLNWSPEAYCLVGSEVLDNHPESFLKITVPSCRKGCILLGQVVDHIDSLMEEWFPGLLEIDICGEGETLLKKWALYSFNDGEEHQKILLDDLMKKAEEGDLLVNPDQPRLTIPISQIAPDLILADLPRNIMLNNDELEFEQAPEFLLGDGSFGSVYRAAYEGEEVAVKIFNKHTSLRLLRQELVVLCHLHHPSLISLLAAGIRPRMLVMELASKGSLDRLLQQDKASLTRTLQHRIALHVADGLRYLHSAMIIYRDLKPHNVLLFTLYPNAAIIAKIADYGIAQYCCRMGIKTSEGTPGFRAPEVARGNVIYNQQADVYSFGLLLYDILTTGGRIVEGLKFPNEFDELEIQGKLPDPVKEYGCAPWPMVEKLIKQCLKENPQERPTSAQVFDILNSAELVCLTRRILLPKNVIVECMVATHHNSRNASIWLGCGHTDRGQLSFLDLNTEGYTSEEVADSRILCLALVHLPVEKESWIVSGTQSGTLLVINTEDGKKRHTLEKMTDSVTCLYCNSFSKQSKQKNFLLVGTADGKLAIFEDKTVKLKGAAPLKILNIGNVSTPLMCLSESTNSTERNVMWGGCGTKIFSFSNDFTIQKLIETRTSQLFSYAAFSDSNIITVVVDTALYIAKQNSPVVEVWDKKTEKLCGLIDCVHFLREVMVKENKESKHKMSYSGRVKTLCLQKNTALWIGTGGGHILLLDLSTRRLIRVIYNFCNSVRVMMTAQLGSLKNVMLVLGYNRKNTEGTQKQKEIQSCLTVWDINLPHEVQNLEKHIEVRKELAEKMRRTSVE

Row | Structure (SMILES) | residual activity
27 | N#CCCc1ccc2c(c1)-c1[nH]c3ccc([N+](=O)[O-])cc3c1CC(=O)N2 | 73.8%
28 | O=c1c2ccccc2[nH]c(=S)n1CCN1CCC(=C(c2ccc(F)cc2)c2ccc(F)cc2)CC1 | 93.9%
29 | Nc1ncnc2c1cnn2-c1ccccc1 | 99.3%
30 | O=C(c1ccccc1)c1ccc(N2CCOCC2)cc1O | 95.4%

The compounds below were run against MAP2K2 (human) (UniProt P36507) in the same assay as above. Settings: compound 0.5 µM; ATP 10 µM.

Row | Structure (SMILES) | residual activity
31 | N#CCCc1ccc2c(c1)-c1[nH]c3ccc([N+](=O)[O-])cc3c1CC(=O)N2 | 90.3%
32 | O=c1c2ccccc2[nH]c(=S)n1CCN1CCC(=C(c2ccc(F)cc2)c2ccc(F)cc2)CC1 | 101%
33 | Nc1ncnc2c1cnn2-c1ccccc1 | 96.9%
34 | O=C(c1ccccc1)c1ccc(N2CCOCC2)cc1O | 101%

What follows are compounds tested against MAP3K2 (human) (UniProt Q9Y2U5) in the same assay as above. Settings: compound 0.5 µM; ATP 10 µM.

Row | Structure (SMILES) | residual activity
35 | N#CCCc1ccc2c(c1)-c1[nH]c3ccc([N+](=O)[O-])cc3c1CC(=O)N2 | 61.5%
36 | O=c1c2ccccc2[nH]c(=S)n1CCN1CCC(=C(c2ccc(F)cc2)c2ccc(F)cc2)CC1 | 99.6%
37 | Nc1ncnc2c1cnn2-c1ccccc1 | 89.5%
38 | O=C(c1ccccc1)c1ccc(N2CCOCC2)cc1O | 102%

These compounds were tested against MARK2 (human) (UniProt Q7KZI7) in the same assay as above. Settings: compound 0.5 µM; ATP 10 µM.
Chain of MARK2 (human) (Q7KZI7 whole entry, looked up): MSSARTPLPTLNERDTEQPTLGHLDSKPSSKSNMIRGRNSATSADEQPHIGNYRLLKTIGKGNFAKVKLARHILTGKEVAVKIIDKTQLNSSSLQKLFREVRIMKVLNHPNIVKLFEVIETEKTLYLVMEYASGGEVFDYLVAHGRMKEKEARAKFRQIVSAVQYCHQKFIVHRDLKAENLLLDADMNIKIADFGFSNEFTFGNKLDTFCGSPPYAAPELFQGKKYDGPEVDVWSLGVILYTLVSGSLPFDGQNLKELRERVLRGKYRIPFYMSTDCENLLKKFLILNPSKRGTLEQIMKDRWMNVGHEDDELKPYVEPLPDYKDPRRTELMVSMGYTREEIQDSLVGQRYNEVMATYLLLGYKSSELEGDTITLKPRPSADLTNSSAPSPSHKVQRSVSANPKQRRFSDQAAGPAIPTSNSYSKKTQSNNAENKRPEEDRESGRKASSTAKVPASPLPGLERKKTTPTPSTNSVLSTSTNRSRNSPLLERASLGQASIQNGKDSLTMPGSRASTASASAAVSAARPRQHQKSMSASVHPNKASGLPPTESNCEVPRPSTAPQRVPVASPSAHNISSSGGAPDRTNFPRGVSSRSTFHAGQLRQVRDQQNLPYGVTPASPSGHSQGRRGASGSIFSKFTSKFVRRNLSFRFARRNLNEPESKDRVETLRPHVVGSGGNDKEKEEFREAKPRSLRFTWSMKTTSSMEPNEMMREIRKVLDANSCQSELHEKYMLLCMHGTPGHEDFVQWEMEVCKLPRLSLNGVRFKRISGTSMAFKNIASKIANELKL

Row | Structure (SMILES) | residual activity
39 | N#CCCc1ccc2c(c1)-c1[nH]c3ccc([N+](=O)[O-])cc3c1CC(=O)N2 | 65.5%
40 | O=c1c2ccccc2[nH]c(=S)n1CCN1CCC(=C(c2ccc(F)cc2)c2ccc(F)cc2)CC1 | 108%
41 | Nc1ncnc2c1cnn2-c1ccccc1 | 95.3%
42 | O=C(c1ccccc1)c1ccc(N2CCOCC2)cc1O | 107%
